For 14 compounds, IC50 results are on record in US7074789B2, “Kinase inhibitors” (Amgen Inc., priority 1999, dated 2006).

What all share (format): biochemical
One assay addresses T1, ErbB2 (Homo sapiens, UniProt P04626).
T1 construct: Kinases are expressed as either kinase domains or full length constructs; made in house
Description: Kinase inhibition assay (33P transfer), ErbB2. The settings on record: read-out: ErbB2-2. Summed up: (§1)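 GST/His-fusion kinases, E. coli or High Five expressed, affinity purified; 33P-ATP, plate-coated poly(Glu,Tyr) 4:1 or poly(Arg,Ser) 3:1; 0.5% H3PO4 wash, scintillant, LSC.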

The next assay addresses T2, Kdr (Homo sapiens, UniProt P35968).
T2 construct: Kinases are expressed as either kinase domains or full length constructs; made in house
Description: Kinase inhibition assay (33P transfer), Kdr. The settings on record: Table 3, class symbols; read-out: KDR-1. An outline of the steps: (§2)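 Liquid scintillation counting of 33P on plate-bound synthetic substrates gives kinase activity. Plates are washed in 0.5% phosphoric acid first; kinases are tagged recombinant proteins from E. coli or baculovirus-infected High Five cells.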

In a further assay the target is T3, c-Met (Homo sapiens, UniProt P08581).
T3 construct: Kinases are expressed as either kinase domains or full length constructs; made in house
Nature of the assay: Kinase inhibition assay (33P transfer), c-Met. To be noted: Table 2, class symbols A-E; read-out: Met-1. An outline of the steps: as §1

The target in another assay is T4, PDGFRB (Homo sapiens, UniProt P09619).
T4 construct: Kinases are expressed as either kinase domains or full length constructs; made in house
Description: Kinase inhibition assay (33P transfer), PDGFRB. The settings on record: read-out: PDGFRB-1.

The target of the next assay is T5, Itk (Homo sapiens, UniProt Q08881).
T5 construct: Kinases are expressed as either kinase domains or full length constructs; made in house
T5 sequence (Q08881 1-620): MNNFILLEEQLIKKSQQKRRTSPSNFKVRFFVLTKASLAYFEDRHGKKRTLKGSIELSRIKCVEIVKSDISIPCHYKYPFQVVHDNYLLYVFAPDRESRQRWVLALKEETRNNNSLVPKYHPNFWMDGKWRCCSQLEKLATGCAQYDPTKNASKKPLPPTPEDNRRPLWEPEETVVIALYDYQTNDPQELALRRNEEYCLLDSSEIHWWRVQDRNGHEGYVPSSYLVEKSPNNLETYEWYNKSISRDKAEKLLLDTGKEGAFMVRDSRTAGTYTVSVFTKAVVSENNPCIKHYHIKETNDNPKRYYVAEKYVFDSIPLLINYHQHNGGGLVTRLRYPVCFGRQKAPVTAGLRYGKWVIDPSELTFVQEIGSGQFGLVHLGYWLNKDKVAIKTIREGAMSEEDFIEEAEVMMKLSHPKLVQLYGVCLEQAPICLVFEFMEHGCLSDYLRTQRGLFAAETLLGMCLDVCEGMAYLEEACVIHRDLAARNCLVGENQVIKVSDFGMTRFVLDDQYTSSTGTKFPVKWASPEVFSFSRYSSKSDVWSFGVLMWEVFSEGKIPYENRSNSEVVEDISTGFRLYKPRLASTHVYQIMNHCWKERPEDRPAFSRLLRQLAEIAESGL
Description: Kinase inhibition assay (33P transfer), Itk. To be noted: Table 3, class symbols; read-out: Itk-1. Summed up: as §1

Another assay addresses T6, IGFR-1 (Homo sapiens, UniProt P08069).
T6 construct: Kinases are expressed as either kinase domains or full length constructs; made in house
Description: Kinase inhibition assay (33P transfer), IGFR-1. To be noted: Table 2, class symbols A-E.

The target in a further assay is T7, Zap-70 (Homo sapiens, UniProt P43403).
T7 construct: Kinases are expressed as either kinase domains or full length constructs; made in house
T7 sequence (P43403 1-619): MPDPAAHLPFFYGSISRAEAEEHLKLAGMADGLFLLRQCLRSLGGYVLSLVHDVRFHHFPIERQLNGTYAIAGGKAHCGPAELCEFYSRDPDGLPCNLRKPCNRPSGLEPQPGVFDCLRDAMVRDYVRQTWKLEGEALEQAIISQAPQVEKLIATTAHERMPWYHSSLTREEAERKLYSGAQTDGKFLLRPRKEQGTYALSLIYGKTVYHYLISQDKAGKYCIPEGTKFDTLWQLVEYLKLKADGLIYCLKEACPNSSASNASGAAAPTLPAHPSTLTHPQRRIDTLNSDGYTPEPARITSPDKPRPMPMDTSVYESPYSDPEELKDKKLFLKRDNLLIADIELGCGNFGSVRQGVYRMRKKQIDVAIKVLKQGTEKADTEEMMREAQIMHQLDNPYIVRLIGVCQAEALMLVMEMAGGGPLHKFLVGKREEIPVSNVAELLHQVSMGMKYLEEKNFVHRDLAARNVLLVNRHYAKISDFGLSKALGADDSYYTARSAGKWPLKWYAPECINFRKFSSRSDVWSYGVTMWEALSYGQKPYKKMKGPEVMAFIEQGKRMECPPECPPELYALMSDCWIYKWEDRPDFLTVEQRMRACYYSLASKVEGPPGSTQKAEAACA
Nature of the assay: Kinase inhibition assay (33P transfer), Zap-70. To be noted: Table 3, class symbols; read-out: Zap-1. An outline of the steps: as §2

For a further assay, the target named is T8, AKT (Homo sapiens, UniProt Q9Y243).
T8 construct: Kinases are expressed as either kinase domains or full length constructs; made in house
Nature of the assay: Kinase inhibition assay (33P transfer), AKT. The settings on record: Table 2, class symbols A-E; read-out: AKT3-1. An outline of the steps: as §2

The target of a further assay is T9, Lck (Homo sapiens, UniProt P06239).
T9 construct: Kinases are expressed as either kinase domains or full length constructs; made in house
Nature of the assay: Kinase inhibition assay (33P transfer), Lck. To be noted: Table 3, class symbols; read-out: Lck-1. Summed up: as §2

The next assay concerns the target T10, EGFR (Homo sapiens, UniProt P00533).
T10 construct: Kinases are expressed as either kinase domains or full length constructs; made in house
Description: Kinase inhibition assay (33P transfer), EGFR. The settings on record: Table 2, class symbols A-E; read-out: EGFR-1. Summed up:
as §1

pIC50: −log10 of the molar value. “And” between values parts separate entries of the source, which are not always exact repeats. Identical values can stand only once.

T1 sequence (P04626 23-1255, species assumed): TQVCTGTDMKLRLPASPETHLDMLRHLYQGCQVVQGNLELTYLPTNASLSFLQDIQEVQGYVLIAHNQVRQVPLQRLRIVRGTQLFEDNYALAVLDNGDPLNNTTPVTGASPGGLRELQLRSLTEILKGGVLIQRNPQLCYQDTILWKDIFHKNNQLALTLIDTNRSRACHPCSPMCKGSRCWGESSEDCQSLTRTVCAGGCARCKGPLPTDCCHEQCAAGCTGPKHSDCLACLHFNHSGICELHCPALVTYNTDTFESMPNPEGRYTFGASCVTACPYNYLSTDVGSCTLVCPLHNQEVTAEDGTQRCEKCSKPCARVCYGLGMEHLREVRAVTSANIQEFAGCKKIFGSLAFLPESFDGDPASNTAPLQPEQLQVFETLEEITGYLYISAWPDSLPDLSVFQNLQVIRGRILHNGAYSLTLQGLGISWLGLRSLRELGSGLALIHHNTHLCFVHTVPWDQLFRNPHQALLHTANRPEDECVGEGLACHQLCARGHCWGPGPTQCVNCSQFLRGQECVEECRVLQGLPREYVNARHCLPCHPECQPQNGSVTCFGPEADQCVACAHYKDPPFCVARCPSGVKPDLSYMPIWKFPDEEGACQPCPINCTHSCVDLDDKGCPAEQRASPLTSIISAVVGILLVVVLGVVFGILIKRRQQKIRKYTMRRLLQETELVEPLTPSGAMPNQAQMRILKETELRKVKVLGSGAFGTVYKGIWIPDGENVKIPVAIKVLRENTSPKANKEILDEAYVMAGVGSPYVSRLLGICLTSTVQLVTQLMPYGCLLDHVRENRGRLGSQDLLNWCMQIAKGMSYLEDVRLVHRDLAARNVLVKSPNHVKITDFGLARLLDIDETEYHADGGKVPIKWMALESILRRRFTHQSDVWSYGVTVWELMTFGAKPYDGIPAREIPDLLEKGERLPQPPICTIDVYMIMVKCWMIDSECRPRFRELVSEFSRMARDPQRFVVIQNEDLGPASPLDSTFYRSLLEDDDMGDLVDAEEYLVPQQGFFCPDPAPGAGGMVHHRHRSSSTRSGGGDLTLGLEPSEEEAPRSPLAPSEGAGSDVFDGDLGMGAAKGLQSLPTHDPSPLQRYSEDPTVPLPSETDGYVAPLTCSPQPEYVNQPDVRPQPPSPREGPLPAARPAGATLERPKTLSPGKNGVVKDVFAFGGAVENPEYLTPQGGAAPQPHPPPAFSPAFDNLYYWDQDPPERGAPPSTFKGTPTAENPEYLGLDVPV
T4 sequence (P09619 33-1106, species assumed): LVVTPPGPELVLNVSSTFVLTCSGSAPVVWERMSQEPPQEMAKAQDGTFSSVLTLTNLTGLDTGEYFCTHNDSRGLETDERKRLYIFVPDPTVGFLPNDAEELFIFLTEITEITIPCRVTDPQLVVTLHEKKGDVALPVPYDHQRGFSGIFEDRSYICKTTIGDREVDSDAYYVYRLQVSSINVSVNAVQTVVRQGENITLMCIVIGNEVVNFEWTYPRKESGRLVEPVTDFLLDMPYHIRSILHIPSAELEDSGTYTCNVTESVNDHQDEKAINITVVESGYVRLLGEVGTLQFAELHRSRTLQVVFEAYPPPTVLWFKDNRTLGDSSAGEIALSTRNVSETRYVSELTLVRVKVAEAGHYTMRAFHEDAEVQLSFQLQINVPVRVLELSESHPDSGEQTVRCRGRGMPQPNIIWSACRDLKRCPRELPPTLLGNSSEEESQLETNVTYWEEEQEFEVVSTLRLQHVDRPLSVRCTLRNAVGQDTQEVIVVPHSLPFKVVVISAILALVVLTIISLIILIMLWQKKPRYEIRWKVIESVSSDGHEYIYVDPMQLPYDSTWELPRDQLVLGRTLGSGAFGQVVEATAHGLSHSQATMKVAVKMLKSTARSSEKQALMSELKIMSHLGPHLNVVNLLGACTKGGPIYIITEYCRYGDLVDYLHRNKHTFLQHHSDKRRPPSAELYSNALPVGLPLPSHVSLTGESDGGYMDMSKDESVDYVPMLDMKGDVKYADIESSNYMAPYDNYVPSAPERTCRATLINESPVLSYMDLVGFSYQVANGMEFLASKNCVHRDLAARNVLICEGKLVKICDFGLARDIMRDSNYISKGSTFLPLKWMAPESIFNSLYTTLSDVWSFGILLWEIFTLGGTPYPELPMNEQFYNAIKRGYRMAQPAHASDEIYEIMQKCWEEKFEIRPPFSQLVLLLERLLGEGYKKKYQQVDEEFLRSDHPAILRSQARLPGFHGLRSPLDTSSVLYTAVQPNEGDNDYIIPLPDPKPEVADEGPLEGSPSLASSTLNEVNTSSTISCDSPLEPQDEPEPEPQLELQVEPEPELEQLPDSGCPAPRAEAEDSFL
T3 sequence (P08581 25-1390): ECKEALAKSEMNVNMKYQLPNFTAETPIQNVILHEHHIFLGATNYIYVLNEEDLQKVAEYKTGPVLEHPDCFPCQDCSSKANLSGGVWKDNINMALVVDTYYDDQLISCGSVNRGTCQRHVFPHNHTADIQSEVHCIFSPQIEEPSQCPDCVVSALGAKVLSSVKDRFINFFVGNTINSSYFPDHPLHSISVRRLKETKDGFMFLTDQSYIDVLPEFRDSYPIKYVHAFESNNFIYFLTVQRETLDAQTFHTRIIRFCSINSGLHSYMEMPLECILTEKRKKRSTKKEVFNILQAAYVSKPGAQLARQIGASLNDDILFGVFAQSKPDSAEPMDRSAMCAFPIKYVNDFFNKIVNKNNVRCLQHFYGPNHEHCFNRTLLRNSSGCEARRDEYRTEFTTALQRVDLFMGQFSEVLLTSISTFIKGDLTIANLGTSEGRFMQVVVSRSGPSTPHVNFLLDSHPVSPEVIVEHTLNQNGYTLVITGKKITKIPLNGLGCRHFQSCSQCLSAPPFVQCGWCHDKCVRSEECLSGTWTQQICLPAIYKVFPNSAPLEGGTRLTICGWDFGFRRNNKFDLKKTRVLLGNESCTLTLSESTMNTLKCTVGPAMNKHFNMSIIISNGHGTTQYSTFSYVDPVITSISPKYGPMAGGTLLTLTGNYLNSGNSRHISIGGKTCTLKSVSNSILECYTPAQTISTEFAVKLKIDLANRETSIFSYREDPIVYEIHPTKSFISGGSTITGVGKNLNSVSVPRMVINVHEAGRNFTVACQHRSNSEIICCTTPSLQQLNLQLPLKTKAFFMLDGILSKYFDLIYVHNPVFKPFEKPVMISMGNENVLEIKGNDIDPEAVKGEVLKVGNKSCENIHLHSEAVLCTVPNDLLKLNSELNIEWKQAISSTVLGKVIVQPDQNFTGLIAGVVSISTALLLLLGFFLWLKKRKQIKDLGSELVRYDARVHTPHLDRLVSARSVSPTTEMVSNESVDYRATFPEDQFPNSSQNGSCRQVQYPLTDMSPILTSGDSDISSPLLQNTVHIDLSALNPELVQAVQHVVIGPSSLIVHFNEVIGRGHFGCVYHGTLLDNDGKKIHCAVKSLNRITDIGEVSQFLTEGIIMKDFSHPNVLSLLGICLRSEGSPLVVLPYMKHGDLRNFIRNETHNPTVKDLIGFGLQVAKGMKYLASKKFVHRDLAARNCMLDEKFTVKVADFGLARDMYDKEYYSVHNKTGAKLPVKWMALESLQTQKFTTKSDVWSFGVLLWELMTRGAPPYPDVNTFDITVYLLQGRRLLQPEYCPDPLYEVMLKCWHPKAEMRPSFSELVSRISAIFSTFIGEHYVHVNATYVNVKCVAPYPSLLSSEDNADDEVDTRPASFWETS
T10 sequence (P00533 25-1210, species assumed): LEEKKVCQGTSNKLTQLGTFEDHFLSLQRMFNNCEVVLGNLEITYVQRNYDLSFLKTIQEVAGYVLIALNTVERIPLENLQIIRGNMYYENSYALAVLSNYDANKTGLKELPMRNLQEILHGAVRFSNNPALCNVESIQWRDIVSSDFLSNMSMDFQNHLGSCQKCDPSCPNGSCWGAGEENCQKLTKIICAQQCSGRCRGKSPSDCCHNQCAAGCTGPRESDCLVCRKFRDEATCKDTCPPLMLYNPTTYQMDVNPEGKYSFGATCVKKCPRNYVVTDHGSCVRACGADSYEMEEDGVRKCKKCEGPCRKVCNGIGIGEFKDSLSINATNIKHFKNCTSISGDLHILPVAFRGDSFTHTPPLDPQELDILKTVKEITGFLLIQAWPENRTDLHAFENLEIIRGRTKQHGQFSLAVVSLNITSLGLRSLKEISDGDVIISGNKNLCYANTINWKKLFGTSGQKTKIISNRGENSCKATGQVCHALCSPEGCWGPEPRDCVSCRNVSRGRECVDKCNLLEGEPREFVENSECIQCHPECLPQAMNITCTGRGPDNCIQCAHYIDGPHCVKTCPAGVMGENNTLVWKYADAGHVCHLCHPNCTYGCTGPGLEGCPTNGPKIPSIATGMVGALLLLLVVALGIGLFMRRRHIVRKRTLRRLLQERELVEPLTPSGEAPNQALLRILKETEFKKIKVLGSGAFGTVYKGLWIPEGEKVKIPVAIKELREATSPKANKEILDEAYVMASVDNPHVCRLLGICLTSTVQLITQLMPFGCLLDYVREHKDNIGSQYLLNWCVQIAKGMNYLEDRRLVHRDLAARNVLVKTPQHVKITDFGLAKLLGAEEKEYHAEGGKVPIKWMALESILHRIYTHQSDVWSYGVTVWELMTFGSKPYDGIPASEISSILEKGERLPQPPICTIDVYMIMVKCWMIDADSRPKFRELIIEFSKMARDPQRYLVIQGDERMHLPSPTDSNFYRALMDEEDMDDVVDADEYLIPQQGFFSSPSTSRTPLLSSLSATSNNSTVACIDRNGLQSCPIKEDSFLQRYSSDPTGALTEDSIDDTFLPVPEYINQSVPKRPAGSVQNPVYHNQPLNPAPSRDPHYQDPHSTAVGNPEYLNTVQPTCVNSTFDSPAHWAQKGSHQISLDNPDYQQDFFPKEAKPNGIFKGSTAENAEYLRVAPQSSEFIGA

In the case of `c1coc(-c2cc(Nc3ncnc(Nc4nc[nH]n4)n3)n[nH]2)c1` [Compound 889], the pIC50 on ErbB2, on Kdr, at c-Met, on PDGFRB, at Itk and on IGFR-1 was 5.11 to 5.89 throughout. Also, the pIC50 on Zap-70 was less than 4.84; at AKT, less than 4.84; at Lck it was less than 4.84; at EGFR it was 5.11 to 5.89.

Take `COC(=O)c1ccc(-c2cc(Nc3ncnc(Nc4cccc(Cc5nnn[nH]5)c4)n3)[nH]n2)cc1` [Compound 991]: the pIC50 was 5.29 to 6.07 on ErbB2; 5.13 to 5.29 on Kdr; greater than 6.07 at c-Met; 5.29 to 6.07 at PDGFRB; 5.13 to 5.29 on Itk; 5.29 to 6.07 against IGFR-1. For the same compound, the pIC50 on Zap-70 is 5.02 to 5.13; at AKT it was 5.13 to 5.29; on Lck it was 5.13 to 5.29; at EGFR, 5.29 to 6.07.

For `COc1cc(Nc2ncnc(-c3cccnc3Nc3cccc(Oc4ccccc4)c3)n2)cc(OC)c1OC` [Compound 840], the pIC50 at ErbB2 was 5.34 to 6.12; on Kdr, 5.17 to 5.34; on c-Met it was less than 5.06; at PDGFRB, 5.34 to 6.12; at Itk, less than 5.06; at IGFR-1, less than 5.06. Moreover, the pIC50 on Zap-70, on AKT, at Lck and at EGFR was less than 5.06 each time.

As for `COc1cc(Nc2ncnc(-c3cccnc3NC(C)c3ccccc3)n2)cc(OC)c1OC` (centres unmarked) [Compound 843], the pIC50 at ErbB2 was 5.01 to 5.12; on Kdr, greater than 6.06; at c-Met, less than 5.01; on PDGFRB, greater than 6.06; at Itk, less than 5.01; at IGFR-1, less than 5.01. Also, the pIC50 on Zap-70 is less than 5.01; on AKT, less than 5.01; on Lck, greater than 6.06; on EGFR, less than 5.01.

As to `O=C(O)/C=C/c1ccc(Nc2ncnc(Nc3cc(-c4ccco4)[nH]n3)n2)cc1` [Compound 886], the pIC50 is 5.21 to 5.99 on ErbB2; greater than 5.99 on Kdr; greater than 5.99 at c-Met; less than 4.94 on PDGFRB; greater than 5.99 on Itk; 5.21 to 5.99 on IGFR-1. In addition, the pIC50 is 5.21 to 5.99 on Zap-70, 5.21 to 5.99 at AKT, 5.21 to 5.99 at Lck and greater than 5.99 at EGFR.

With `O=C(O)Cc1cccc(Nc2ncnc(Nc3ccc(Cl)cc3F)n2)c1` [Compound 968], the pIC50 is 5.03 to 5.19 on ErbB2; greater than 5.97 at Kdr; 4.92 to 5.03 at c-Met; greater than 5.97 at PDGFRB; less than 4.92 at Itk; 4.92 to 5.03 against IGFR-1. In addition, the pIC50 on Zap-70 is less than 4.92; on AKT it was less than 4.92; on Lck, less than 4.92; on EGFR it was 5.19 to 5.97.

As for `OCc1cccc(Nc2ncnc(-c3cccnc3NCc3ccccc3)n2)c1` [Compound 1103], the pIC50 was 4.93 to 5.04 at ErbB2; greater than 5.98 at Kdr; less than 4.93 at c-Met; greater than 5.98 on PDGFRB; less than 4.93 on Itk; less than 4.93 against IGFR-1. The pIC50 at Zap-70 is 4.93 to 5.04; on AKT it was 4.93 to 5.04; at Lck, 5.20 to 5.98; on EGFR it was 5.20 to 5.98.

With `COc1cc(Nc2ncnc(-c3cccnc3Nc3ccc4c(c3)CCC4)n2)cc(OC)c1OC` [Compound 830], the pIC50 on ErbB2 was less than 5.02; at Kdr, 5.29 to 6.07; on c-Met, 5.29 to 6.07; on PDGFRB, less than 5.02; at Itk it was less than 5.02; on IGFR-1 it was less than 5.02. The pIC50 on Zap-70, on AKT, at Lck and at EGFR was less than 5.02 in each case.

With `C#Cc1cccc(Nc2ncnc(Nc3cc(-c4ccccc4)n[nH]3)n2)c1` [Compound 1008], the pIC50 was less than 4.90 at ErbB2; 5.17 to 5.95 at Kdr; 5.17 to 5.95 at c-Met; less than 4.90 on PDGFRB; 5.17 to 5.95 at Itk; greater than 5.95 on IGFR-1. The pIC50 was less than 4.90 on Zap-70, less than 4.90 at AKT, 5.17 to 5.95 on Lck and 5.17 to 5.95 at EGFR.

Take `CC(C)Nc1ncccc1-c1ncnc(Nc2cccc(CC(=O)O)c2)n1` [Compound 1097]: the pIC50 was less than 4.91 on ErbB2; 5.18 to 5.96 on Kdr; 5.02 to 5.18 at c-Met; greater than 5.96 on PDGFRB; less than 4.91 on Itk; less than 4.91 at IGFR-1. Moreover, the pIC50 on Zap-70 is 5.02 to 5.18; at AKT it was less than 4.91; at Lck, 5.18 to 5.96; at EGFR, less than 4.91.

`Fc1cccc(CNc2nc3ccccc3n2-c2ncnc(Nc3cccc(Cn4ccnn4)c3)n2)c1` [Compound 964]: the pIC50 on ErbB2 is 5.15 to 5.31; on Kdr, greater than 6.09; at c-Met, less than 5.04; on PDGFRB it was greater than 6.09; on Itk, 5.04 to 5.15; at IGFR-1 it was less than 5.04. In addition, the pIC50 is less than 5.04 at Zap-70, less than 5.04 at AKT, 5.15 to 5.31 at Lck and 5.31 to 6.09 at EGFR.

For the compound `COC(=O)c1ccc(-c2cc(Nc3ncnc(NCCN4CCNC4=O)n3)[nH]n2)cc1` [Compound 820], the pIC50 on ErbB2 is less than 4.97; at Kdr, less than 4.97; at c-Met, less than 4.97; on PDGFRB it was less than 4.97; on Itk, 4.97 to 5.08; against IGFR-1 it was 4.97 to 5.08. Further, the pIC50 at Zap-70, at AKT, on Lck and at EGFR was less than 4.97 throughout.

For `CCOc1cccc(Nc2ncnc(N3CCCc4cc(C)ccc43)n2)c1` [Compound 892], the pIC50 at ErbB2 was 5.18 to 5.96; at Kdr, 5.18 to 5.96; on c-Met it was 5.18 to 5.96; at PDGFRB it was greater than 5.96; on Itk, 4.90 to 5.01; against IGFR-1, less than 4.90. In addition, the pIC50 was less than 4.90 at Zap-70, less than 4.90 on AKT, 5.18 to 5.96 at Lck and greater than 5.96 at EGFR.

On to `OCc1cccc(Nc2ncnc(-c3cccnc3NCc3ccc(F)cc3)n2)c1` [Compound 1104], for which the pIC50 at ErbB2 was < 4.95 and 5.22 to 6.00; on Kdr it was greater than 6.00; on c-Met, less than 4.95; on PDGFRB, greater than 6.00; at Itk, < 4.95 and 4.95 to 5.06; against IGFR-1 it was < 4.95 and 4.95 to 5.06. For the same compound, the pIC50 is less than 4.95 at Zap-70; 4.95 to 5.06 and < 4.95 on AKT; < 4.95 and 5.22 to 6.00 on Lck; < 4.95 and 5.22 to 6.00 on EGFR.
